# Experimental data published in patent US20260139245A1, “METHODS AND USES OF RIBONUCLEASE INHIBITORS” (Sequrna AB, priority 2022, published 2026).
# Where “and” joins values, the source holds several entries; their conditions need not be identical. Equal values may be shown once.
# Test system: RNase
# Assay: Smart-seq2 (SS2) cDNA library generation and sequencing from 100 pg mouse RNA with the agent replacing recombinant RNase inhibitor in lysis buffer
# Format: biochemical
# Conditions: for sustained RNA stability during cDNA library generation: SS2 protocol for bulk RNA; for quality of the sequencing data compared with standard Smart-seq2 utilizing recombinant RNAse inhibitor (TaKaRa): agent used in its optimal range; for optimal range of alternative inhibitor (cDNA size distribution and yield similar to standard Smart-seq2): concentration in 1× Smart-seq2 lysis buffer, 100 pg mouse RNA
# Description: We started by systematically testing ranges of PVSA concentrations in the scRNAseq protocol Smart-seq2 (SS2) (5), which provides full-length read coverage across transcripts, enabling evaluation of polymerase processivity. We prepared lysis buffer containing 0-600 μg/mL of PVSA (resulting in 0-270 μg/mL in the following first-strand reaction) and 100 pg spiked mouse RNA, performed SS2 library amplification, and evaluated resulting cDNA by capillary electrophoresis (Methods).
# To examine the information yield and quality of PVSA-generated RNA-seq libraries, we sequenced SS2 libraries generated in presence of PVSA or RI (TaKaRa) and downsampled the resulting reads to allow even comparison (Methods). We analyzed library quality metrics in terms of genomic and transcriptomic mappability, base substitution rates, insertion and deletions (indels), likelihood of mismatches within the read, and average indel length.
# Bulk RNA was extracted from cultured mouse tail tip fibroblasts using TRIzol (Invitrogen). For all bulk RNAseq experiments 100 pg of RNA was used as input, if is not otherwise specified, and was added to 96-well plates containing either Smart-seq2 or Smart-seq3 standard lysis buffer or lysis buffer with varying concentrations of polyvinyl sulfonic acid (Merck, cat no. 278424). Smart-seq2 lysis buffer composition was 0.1% Triton X-100, 2.5 mM dNTP/each, […] oligo-dT (5′-[…]30VN-3′), and 4 U recombinant inhibitor (TaKaRa) or PVSA of the concentration specified for each condition; total buffer volume 4.5 ul. Smart-seq3 lysis buffer composition was 0.1% Triton X-100, 10% PEG 8000, 1 mM dNTP/each, and 1 uM Smart-seq3 oligo-dT (5′-biotin-[…] T30VN-3′), and 1 U recombinant inhibitor (TaKaRa) or PVSA of the concentration specified for each condition; total buffer volume 2 ul. For single-cell experiments, cultured HEK293FT, spleen, or liver cells in 0.5% BSA in PBS were sorted into 96 well plates containing lysis buffer using an SH800S (Sony). Single cell sorted plates were briefly centrifuged and kept at −80° C. until they were further processed. Plates containing lysis buffer and input material were then processed according to the Smart seq2 and Smart-seq3 protocols (Picelli, S. et al., 2014 and Hagemann-Jensen, M. et al., 2020), except without addition of recombinant inhibitor in the first-strand reaction mix in reactions where PVSA was used. Smart-seq2 cDNA library generation: Cell were lysed at 72° C. for 3 min in a Bioer Life ECO thermocycler and placed on ice prior to first-strand synthesis. The following reverse transcriptase reaction contained 1× Superscript II buffer, 5 mM DTT, 1M betaine, 10 mM MgCl2, 1 uM Smart-seq2 TSO (5′-[…]rGrG+G-3′), 10 U Superscript II, and 10 U recombinant inhibitor (TaKaRa) for samples containing biological inhibitor; total reaction volume 10 ul. RT thermocycles were 42° C. for 90 min, followed by 10 cycles of 42° C. for 2 min and 50° C. for 2 min. The following cDNA amplification reaction contained 1× KAPA HiFi HotStart Ready Mix and 80 nM ISPCR primers (5′-[…]-3′); total reaction volume 25 ul. Thermocycles for Smart-seq2 cDNA amplification were 98° C. for 3 min, followed by either 18 (bulk), 20 (HEK), 21 (liver) or 22 (spleen) cycles of 98° C. for 20 sec, 67° C. for 15 sec, and 72° C. for 6 min, followed by a final incubation at 72° C. for 5 min. Smart-seq3 cDNA library generation: Cell were lysed at 72° C. for 10 min and placed on ice prior to first-strand synthesis.
compound,measurement,setting,value
Sodium alginate,sustained RNA stability during cDNA library generation,,did
same,quality of the sequencing data compared with standard Smart-seq2 utilizing recombinant RNAse inhibitor (TaKaRa),,on par
same,optimal range of alternative inhibitor (cDNA size distribution and yield similar to standard Smart-seq2),,200 to 400 µg/mL and 100 to 400 µg/mL
Fucoidan,quality of the sequencing data compared with standard Smart-seq2 utilizing recombinant RNAse inhibitor (TaKaRa),,on par
same,optimal range of alternative inhibitor (cDNA size distribution and yield similar to standard Smart-seq2),,5 to 20 µg/mL
"C=CP(=O)(O)O [VPA, vinylphosphonic acid, reference compound]",sustained RNA stability during cDNA library generation,,did not sustain RNA stability during cDNA library generation
Dextran sulfate,sustained RNA stability during cDNA library generation,,did
same,quality of the sequencing data compared with standard Smart-seq2 utilizing recombinant RNAse inhibitor (TaKaRa),,on par
same,optimal range of alternative inhibitor (cDNA size distribution and yield similar to standard Smart-seq2),,1 to 2.5 µg/mL and 1.5 to 2.5 µg/mL
"C=CS(=O)(=O)O [VSA, Vinylsulfonic acid]",sustained RNA stability during cDNA library generation,,did
same,quality of the sequencing data compared with standard Smart-seq2 utilizing recombinant RNAse inhibitor (TaKaRa),,on par
same,optimal range of alternative inhibitor (cDNA size distribution and yield similar to standard Smart-seq2),,500 to 2000 µg/mL
"O=S(=O)(O)CCN1CCOCC1 [MES, 2-(N-morpholino)ethanesulfonic acid]",sustained RNA stability during cDNA library generation,,did
same,optimal concentration of alternative inhibitor,"Smart-seq2 lysis buffer, 100 pg mouse fibroblast RNA",6 to 8 mg/mL
same,quality of the sequencing data compared with standard Smart-seq2 utilizing recombinant RNAse inhibitor (TaKaRa),,on par
same,optimal range of alternative inhibitor (cDNA size distribution and yield similar to standard Smart-seq2),,4000 to 12000 µg/mL
Heparin [reference compound],sustained RNA stability during cDNA library generation,,did
same,quality of the sequencing data compared with standard Smart-seq2 utilizing recombinant RNAse inhibitor (TaKaRa),,on par
same,optimal range of alternative inhibitor (cDNA size distribution and yield similar to standard Smart-seq2),,2 to 10 µg/mL
